Test results taken from patent publication US20090075309A1, “Bisdeoxycoelenterazine derivatives, methods of use, and BRET2 systems” (priority 2007, published 2009).
Read-outs that look alike come from different tables or passages of the source.

Target: HT1080 cells stably expressing the GFP2-RLuc8 fusion protein (Renilla reniformis, UniProt P27652, A143M/A55T/C124A/K136R/M185V/M253L/S130A/S287L)
Settings: for signal half-life (time required for the initial light flux to fall to its half-value): HT1080 GFP2-RLuc8 cells, 60 μM derivatives; for intensity of the light signal among the four derivatives: FIG. 3A
Method: The kinetics of the bioluminescent reactions was evaluated by exposing the derivatives to HT1080 cells stably expressing the GFP2-RLuc8 fusion protein and detecting generated light over the course of one hour using cooled charge coupled device camera (FIG. 2).
Human fibrosracoma cell line HT1080 stably expressing GFP2-RLuc8 fusion protein was grown in Dulbecco's modified Eagle high glucose medium (DMEM, Invitrogen, Carlsbad, Calif.) supplemented with 10% fetal bovine serum (FBS), 1% penicillin-streptomycin and 500 μg/mL Zeocin™ (Invitrogen). One day before the luminescence study, 10 000 cells were plated in the 96 well plates (Corning Incorporated, Lowell, Mass.). After the removal of the medium 100 μL of the 5 μM solution of BDC in PBS and 60 μM solution of BDC derivatives in DMSO were added and luminescence measured every five minutes during one hour using an open filter setting. The acquisition time was 10 sec. Images were acquired using a cooled charged-coupled device (CCD) camera IVIS 50 (Caliper Life Sciences, Hopkinton, Mass.) and analyzed using Living Image® software version 2.50.1 (Caliper Life Sciences, Hopkinton, Mass.). Region of interest were drawn, and maximum radiance used as the measure of luminescence. The measurements were done in triplicates.

HT1080 cells stably expressing the GFP2-RLuc8 fusion protein, sequence (P27652 whole entry A55T/C124A/S130A/K136R/A143M/M185V/M253L/S287L, the tested form may be a part): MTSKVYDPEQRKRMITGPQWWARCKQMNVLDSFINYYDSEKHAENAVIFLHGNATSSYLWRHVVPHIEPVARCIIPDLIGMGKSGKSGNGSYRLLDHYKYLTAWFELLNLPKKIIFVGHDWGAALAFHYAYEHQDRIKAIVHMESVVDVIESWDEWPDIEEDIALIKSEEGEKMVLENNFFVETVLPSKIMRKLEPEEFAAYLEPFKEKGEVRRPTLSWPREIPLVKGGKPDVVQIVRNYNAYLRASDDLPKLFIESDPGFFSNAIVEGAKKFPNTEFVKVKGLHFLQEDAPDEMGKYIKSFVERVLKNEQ

Compound	signal half-life (time required for the initial light flux to fall to its half-value) (5 μM BDC) [min]	rate of the bioluminescent reaction / light signal decay (in words) (over one hour)	signal half-life (time required for the initial light flux to fall to its half-value)	intensity of the light signal among the four derivatives	further results
O=c1c(Cc2ccccc2)nc2c(Cc3ccccc3)[nH]c(-c3ccccc3)cn1-2 [BDC, bisdeoxycoelenterazine]	5				loss of initial light emission (at the 15 minute time point): ~75%
CC(C)(C)OC(=O)Oc1c(Cc2ccccc2)nc2c(Cc3ccccc3)nc(-c3ccccc3)cn12 [compound 8, O-Boc-bisdeoxycoelenterazine]	~50	remained fairly stable over one hour			time of peak light emission after exposure to the RLUC8 expressing cells: 15 min
acetoxymethyl-bisdeoxycoelenterazine [compound 9]		slower bioluminescent reactions compared to their ester counterparts	over one		delay of the emergence of the maximum light signal compared to the parent BDC: 5 min; rate of the bioluminescent reaction / light signal decay (in words) (over one hour, listed as acetoxymethyl-BDC): slowly decayed with time
acetyl-bisdeoxycoelenterazine [compound 7]		fast light signal decay, similar to BDC		highest light signal	
pivaloyloxymethyl-bisdeoxycoelenterazine [compound 10]		slower bioluminescent reactions compared to their ester counterparts	over one	lowest	observable signal 24 hours after exposure to the enzyme (24 hours, FIG. 3B): the only observable signal 24 hours after exposure to the enzyme came from it; light signal as share of the maximum intensity (lowest value reached) (over one hour): ≥ 88%; rate of the bioluminescent reaction / light signal decay (in words) (over one hour, listed as pivaloyloxymethyl-BDC): slowest bioluminescent reaction
